As usually defined, the inhibition is the drop in the measured response relative to a control, in per cent.

Among the data in patent US9422240B2, “Partially saturated nitrogen-containing heterocyclic compound” (TAISHO PHARMACEUTICAL CO., LTD, priority 2012, dated 2016) are inhibition values, retold here.

Counter-ions that a name gives are not always drawn.

For assay [1], the target named is T1, human PHD2 (Homo sapiens (Human), UniProt Q9GZT9). The assay is described as follows: Test 1: human PHD2 inhibitory activity, [14C]-2-oxoglutarate to [14C]-succinic acid radiometric assay with HIF-1α peptide. In kind it is biochemical. The following applies: read-out: Percent inhibition (% at 1 μM). In short, it runs like this:
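Lysate from HighFive insect cells expressing human PHD2 (4 μg/well) was incubated for 15 min at 37° C with a 19-residue HIF-1α peptide and [14C]-2-oxoglutarate. Unreacted 2-oxoglutarate was precipitated with DNPH and filtered off, and [14C]-succinic acid was counted. Inhibition was calculated relative to substrate-free and compound-free controls.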

For assay [2], the target named is T1, human PHD2. Briefly: Test 2: human PHD2 inhibitory activity, fluorescence polarization assay of HIF-1α peptide proline hydroxylation. In kind it is biochemical. The note with it: read-out: Percent inhibition (% at 1 μM). The procedure, abridged:
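Enzyme from lysate of cells expressing human PHD2 (NM_022051), 40 ng/well, added to compound and 19-residue HIF-1α peptide substrate; 20 min at 30° C., EDTA quench. Prolyl hydroxylation detected by HIF-OH antibody binding via fluorescence polarization; inhibition relative to compound-free wells.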
Background: Fluorescence polarisation rises when a labelled molecule tumbles more slowly, as on binding a larger partner.

[3] abbreviates: test compound's concentration 1 μM, Test 1, [14C]-2-oxoglutarate radiometric assay.
The mark [4] stands for this setting: test compound's concentration 1 μM, Test 2, fluorescence polarization assay.

T1 sequence (Q9GZT9 whole entry): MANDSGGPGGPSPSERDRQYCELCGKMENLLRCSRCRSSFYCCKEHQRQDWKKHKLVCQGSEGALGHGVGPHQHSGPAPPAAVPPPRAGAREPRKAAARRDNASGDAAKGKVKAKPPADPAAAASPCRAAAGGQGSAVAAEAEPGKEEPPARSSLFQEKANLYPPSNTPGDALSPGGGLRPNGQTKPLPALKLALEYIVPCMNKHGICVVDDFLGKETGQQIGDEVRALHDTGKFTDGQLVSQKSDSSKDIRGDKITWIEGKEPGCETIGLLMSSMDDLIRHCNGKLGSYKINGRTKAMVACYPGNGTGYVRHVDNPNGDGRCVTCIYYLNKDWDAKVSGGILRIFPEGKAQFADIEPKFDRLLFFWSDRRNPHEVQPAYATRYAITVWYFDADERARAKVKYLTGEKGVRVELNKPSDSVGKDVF

For the molecule `Cn1cc(-c2ccc(CN3CCC(O)=C(C(=O)NCC(=O)O)C3=O)cc2)cn1` [Ex. 2-6], the inhibition at 1 µM at human PHD2 [1] (setting [3]) was found to be 68%; on human PHD2 [2] (setting [4]) it was 80%.

Consider `O=C(O)CNC(=O)C1=C(O)CCN(Cc2ccc(-c3cccnc3)cc2)C1=O` [Ex. 2-7], for which the inhibition at 1 µM on human PHD2 [1] (setting [3]) amounted to 88%; at human PHD2 [2] (setting [4]), 91%.

As for `O=C(O)CNC(=O)C1=C(O)CCN(Cc2ccc(-c3cnoc3)cc2)C1=O` [Ex. 2-8], the inhibition at 1 µM was found to be 87% on human PHD2 [1] (setting [3]) and 88% on human PHD2 [2] (setting [4]).

For `CC(C)c1cccc(-c2ccc(CN3CCC(O)=C(C(=O)NCC(=O)O)C3=O)cc2)c1` [Ex. 2-9], the inhibition at 1 µM stood at 78% on human PHD2 [1] (setting [3]) and 82% on human PHD2 [2] (setting [4]).

Consider `O=C(O)CNC(=O)C1=C(O)CCN(Cc2ccc(-c3ccc(-c4ccccc4)cc3)cc2)C1=O` [Ex. 2-10], for which the inhibition at 1 µM is 84% at human PHD2 [1] (setting [3]) and 79% at human PHD2 [2] (setting [4]).

`O=C(O)CNC(=O)C1=C(O)CCN(Cc2ccc(-c3ccc(Cl)cc3)cc2)C1=O` [Ex. 2-11]: the inhibition at 1 µM turned out to be 93% on human PHD2 [1] (setting [3]) and 91% at human PHD2 [2] (setting [4]).

As for `COc1ccc(-c2ccc(CN3CCC(O)=C(C(=O)NCC(=O)O)C3=O)cc2)cc1` [Ex. 2-12], the inhibition at 1 µM on human PHD2 [1] (setting [3]) was determined as 93%; on human PHD2 [2] (setting [4]) it was 91%.

In the case of `COc1ccc(-c2ccc(CN3CCC(O)=C(C(=O)NCC(=O)O)C3=O)cc2)cn1` [Ex. 2-13], the inhibition at 1 µM at human PHD2 [1] (setting [3]) was 92%; at human PHD2 [2] (setting [4]), 87%.

As to `N#Cc1ccc(-c2ccc(CN3CCC(O)=C(C(=O)NCC(=O)O)C3=O)cc2)cc1` [Ex. 2-14], the inhibition at 1 µM at human PHD2 [1] (setting [3]) turned out to be 98%; at human PHD2 [2] (setting [4]) it was 93%.

For `CN(C)S(=O)(=O)c1ccc(-c2ccc(CN3CCC(O)=C(C(=O)NCC(=O)O)C3=O)cc2)cc1` [Ex. 2-15], the inhibition at 1 µM on human PHD2 [1] (setting [3]) came to 97%; at human PHD2 [2] (setting [4]), 90%.

As to `CC(=O)c1ccc(-c2ccc(CN3CCC(O)=C(C(=O)NCC(=O)O)C3=O)cc2)cc1` [Ex. 2-16], the figures for the inhibition at 1 µM at human PHD2 [1] (setting [3]) and at human PHD2 [2] (setting [4]) were 102% and 93%, respectively.

With `Cn1nccc1-c1ccc(CN2CCC(O)=C(C(=O)NCC(=O)O)C2=O)cc1` [Ex. 2-17], the values for the inhibition at 1 µM on human PHD2 [1] (setting [3]) and at human PHD2 [2] (setting [4]) were 94% and 87%, respectively.

In the case of `O=C(O)CNC(=O)C1=C(O)CCN(Cc2ccc(-c3ccsc3)cc2)C1=O` [Ex. 2-18], the values for the inhibition at 1 µM on human PHD2 [1] (setting [3]) and on human PHD2 [2] (setting [4]) were 98% and 91%, respectively.

Consider `O=C(O)CNC(=O)C1=C(O)CCN(Cc2ccc(-c3ccncc3)cc2)C1=O` [Ex. 2-19], for which the figures for the inhibition at 1 µM at human PHD2 [1] (setting [3]) and on human PHD2 [2] (setting [4]) were 96% and 93%, respectively.

As for `Cc1nc(C)c(-c2ccc(CN3CCC(O)=C(C(=O)NCC(=O)O)C3=O)cc2)s1` [Ex. 2-20], the inhibition at 1 µM on human PHD2 [1] (setting [3]) is 102%; on human PHD2 [2] (setting [4]), 93%.

As for `O=C(O)CNC(=O)C1=C(O)CCN(Cc2ccc(-c3ccc(C(F)(F)F)nc3)cc2)C1=O` [Ex. 2-21], the inhibition at 1 µM was 88% at human PHD2 [1] (setting [3]) and 93% at human PHD2 [2] (setting [4]).

Consider `O=C(O)CNC(=O)C1=C(O)CCN(Cc2ccc(-c3cccc(Cl)c3)cc2)C1=O` [Ex. 2-22], for which the inhibition at 1 µM at human PHD2 [1] (setting [3]) turned out to be 95%; on human PHD2 [2] (setting [4]) it was 94%.

`O=C(O)CNC(=O)C1=C(O)CCN(Cc2ccc(-c3ccc(Cl)c(Cl)c3)cc2)C1=O` [Ex. 2-23]: the inhibition at 1 µM on human PHD2 [1] (setting [3]) was determined as 88%; on human PHD2 [2] (setting [4]), 96%.

In the case of `O=C(O)CNC(=O)C1=C(O)CCN(Cc2ccc(-c3ccc(C(F)(F)F)cc3)cc2)C1=O` [Ex. 2-24], the inhibition at 1 µM at human PHD2 [1] (setting [3]) was 91%; at human PHD2 [2] (setting [4]), 93%.

As for `Cc1cccc(-c2ccc(CN3CCC(O)=C(C(=O)NCC(=O)O)C3=O)cc2)c1` [Ex. 2-25], the inhibition at 1 µM was 92% on human PHD2 [1] (setting [3]) and 96% at human PHD2 [2] (setting [4]).

Take `COc1cccc(-c2ccc(CN3CCC(O)=C(C(=O)NCC(=O)O)C3=O)cc2)c1` [Ex. 2-26]: the inhibition at 1 µM was found to be 90% on human PHD2 [1] (setting [3]) and 95% on human PHD2 [2] (setting [4]).

Turning to `O=C(O)CNC(=O)C1=C(O)CCN(Cc2ccc(-c3ccc4ncccc4c3)cc2)C1=O` [Ex. 2-27], the inhibition at 1 µM at human PHD2 [1] (setting [3]) worked out at 100%; at human PHD2 [2] (setting [4]), 96%.

As for `O=C(O)CNC(=O)C1=C(O)CCN(Cc2ccc(-c3ccc(F)cc3)cc2)C1=O` [Ex. 2-28], the figures for the inhibition at 1 µM on human PHD2 [1] (setting [3]) and at human PHD2 [2] (setting [4]) were 90% and 97%, respectively.

For `O=C(O)CNC(=O)C1=C(O)CCN(Cc2ccc(-c3ccc(F)cc3)c(F)c2)C1=O` [Ex. 2-29], the inhibition at 1 µM is 101% at human PHD2 [1] (setting [3]) and 95% on human PHD2 [2] (setting [4]).

For `O=C(O)CNC(=O)C1=C(O)CCN(Cc2ccc(-c3ccc(O)cc3)cc2)C1=O` [Ex. 2-30], the inhibition at 1 µM on human PHD2 [1] (setting [3]) came out at 103%; on human PHD2 [2] (setting [4]), 99%.

`O=C(O)CNC(=O)C1=C(O)CCN(Cc2ccc(C3CCCC3)cc2)C1=O` [Ex. 3-1, N-{[1-(4-Cyclopentylbenzyl)-4-hydroxy-2-oxo-1,2,5,6-tetrahydropyridin-3-yl]carbonyl}glycine sodium salt]: the inhibition at 1 µM amounted to 102% at human PHD2 [1] and 95% on human PHD2 [2].

Take `O=C(O)CNC(=O)C1=C(O)CCN(Cc2ccc(C3CC3)cc2)C1=O` [Ex. 3-2, N-{[1-(4-Cyclopropylbenzyl)-4-hydroxy-2-oxo-1,2,5,6-tetrahydropyridin-3-yl]carbonyl}glycine sodium salt]: the inhibition at 1 µM was found to be 87% on human PHD2 [1] and 90% on human PHD2 [2].

Regarding `COc1ccc(CN2CCC(O)=C(C(=O)NCC(=O)O)C2=O)c(OC)c1` [Ex. 4-1, N-{[1-(2,4-Dimethoxybenzyl)-4-hydroxy-2-oxo-1,2,5,6-tetrahydropyridin-3-yl]carbonyl}glycine], the values for the inhibition at 1 µM at human PHD2 [1] (setting [3]) and at human PHD2 [2] (setting [4]) were 58% and 67%, respectively.

Regarding `C=CCOc1ccc(CN2CCC(O)=C(C(=O)NCC(=O)O)C2=O)cc1` [Ex. 4-2, N-({4-Hydroxy-2-oxo-1-[4-(prop-2-en-1-yloxy)benzyl]-1,2,5,6-tetrahydropyridin-3-yl}carbonyl)glycine], the inhibition at 1 µM at human PHD2 [1] (setting [3]) is 77%; on human PHD2 [2] (setting [4]), 81%.
